In US6518276B2, “7-oxo-pyridopyrimidines (II)” (Syntex (U.S.A.) LLC, priority 2000, dated 2003):
Structures can show the parent of a compound that is named as a salt.

Experiments:
p38 MAP kinase = molecular target: T1, p38 MAP kinase (Homo sapiens, UniProt Q16539); experiment: in vitro inhibition of p-38 (MAP) kinase: transfer of γ-phosphate from γ-33P-ATP to Myelin Basic Protein; type: biochemical; conditions: phosphorylated recombinant p38 MAP kinase, MBP substrate, 30° C., read-out: IC50 (p-38 inhibitory activity, concentration causing 50% inhibition of the p-38 enzyme)
T1 construct: made in house; host or cells: E. coli (co-expressed with SEK-1 and MEKK to obtain the phosphorylated form)
Protocol: This example illustrate an assay protocol for determining in vitro inhibition of p-38 (MAP) Kinase.
The p-38 MAP kinase inhibitory activity of compounds of this invention in vitro was determined by measuring the transfer of the γ-phosphate from γ-^33P-ATP by p-38 kinase to Myelin Basic Protein (MBP), using the a minor modification of the method described in Ahn, N. G.; et al. J. Biol. Chem. Vol. 266(7), 4220-4227, (1991).
The phosphorylated form of the recombinant p38 MAP kinase was expressed with SEK-1 and MEKK in E. Coli and then purified by affinity chromatography using a Nickel column.
The phosphorylated p38 MAP kinase was diluted in kinase buffer (20 mM 3-(N-morpholino)propanesulfonic acid, pH 7.2, 25 mM β-glycerol phosphate, 5 mM ethylene glycol-bis(beta-aminoethyl ether)-N,N,N′,N′-tetraacetic acid, 1 mM sodium vanadate, 1 mM dithiothreitol, 40 mM magnesium chloride). Test compound dissolved in DMSO or only DMSO (control) was added and the samples were incubated for 10 min at 30° C. The kinase reaction was initiated by the addition of a substrate cocktail containing MBP and γ-^33P-ATP. After incubating for an additional 20 min at 30° C., the reaction was terminated by adding 0.75% phosphoric acid. The phosphorylated MBP was then separated from the residual γ-^33P-ATP using a phosphocellulose membrane (Millipore, Bedford, Mass.) and quantitated using a scintillation counter (Packard, Meriden, Conn.).
Compounds of the invention were active in this assay. The p-38 inhibitory activities (expressed as IC50 , the concentration causing 50% inhibition of the p-38 enzyme being assayed) of some compounds of the invention are: […]

T1 sequence (Q16539 whole entry): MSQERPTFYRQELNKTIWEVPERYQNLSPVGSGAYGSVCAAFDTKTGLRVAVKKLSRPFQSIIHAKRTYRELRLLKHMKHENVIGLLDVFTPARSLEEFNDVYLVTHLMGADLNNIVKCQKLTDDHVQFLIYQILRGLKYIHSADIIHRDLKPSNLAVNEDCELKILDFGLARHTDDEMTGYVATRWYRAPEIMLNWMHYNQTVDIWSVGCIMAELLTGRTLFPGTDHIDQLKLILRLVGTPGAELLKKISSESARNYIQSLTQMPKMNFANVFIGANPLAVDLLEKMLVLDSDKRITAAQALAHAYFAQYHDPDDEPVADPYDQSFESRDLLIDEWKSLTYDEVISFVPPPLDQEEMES

| SMILES | IC50 (p38 MAP kinase) [nM] | melting point [°C] |
| --- | --- | --- |
| Cn1c(=O)c(-c2ccccc2Cl)cc2cnc(N[C@H](CO)C(C)(C)C)nc21 [Cpd 18] | 92 | 171.2 to 174 |
| CC(Nc1ncc2cc(-c3ccccc3Cl)c(=O)n(C)c2n1)C(C)S(C)(=O)=O.Cl (stereo not shown) | – | 142.1 to 144.3 |
| Cn1c(=O)c(-c2ccccc2Cl)cc2cnc(NC(C)(C)CO)nc21 [Cpd 1] | 52 | – |
| C[C@H](Nc1ncc2cc(-c3ccccc3Cl)c(=O)n(C)c2n1)C(C)(C)O [Cpd 8] | 31 | – |
| C[C@H](Nc1ncc2cc(-c3ccccc3Cl)c(=O)n(C)c2n1)C(C)(C)O.Cl | – | 194 to 195.3 |
| CN1CCC(CNc2ncc3cc(-c4ccccc4Cl)c(=O)[nH]c3n2)CC1.Cl | – | 213 to 220 |
| C[C@@H](Nc1ncc2cc(-c3ccccc3Cl)c(=O)n(-c3ccc(F)cc3)c2n1)C(C)(C)O [Cpd 6] | – | 206.8 to 207.5 |
| Cl.O=C(O)CN1CCC(CNc2ncc3cc(-c4ccccc4Cl)c(=O)[nH]c3n2)CC1 [Cpd 3] | 2200 | 235.3 to 237.9 |
| COC(=O)CN1CCC(CNc2ncc3cc(-c4ccccc4Cl)c(=O)[nH]c3n2)CC1.Cl | – | 220 to 221.1 |
| C[C@H](Nc1ncc2cc(-c3ccccc3Cl)c(=O)n(-c3ccc(F)cc3)c2n1)C(C)(C)O [Cpd 7] | 0.3 | – |
| CC(C)(CO)Nc1ncc2cc(-c3ccccc3Cl)c(=O)n(N)c2n1 [Cpd 13] | 48 | – |
| C[C@H](Nc1ncc2cc(-c3ccccc3Cl)c(=O)n(-c3ccc(F)cc3)c2n1)C(C)(C)O (as salt: HCl) [Cpd 7] | – | 142 to 149 |
| Nn1c(=O)c(-c2ccccc2Cl)cc2cnc(NC3CCCC3)nc21 [Cpd 11] | 24 | 147 to 154 |
| Cl.Cn1c(=O)c(-c2ccccc2Cl)cc2cnc(NC3CCC3)nc21 [Cpd 10] | 42 | 205.3 to 210.9 |
| C[C@H](Nc1ncc2cc(-c3ccccc3Cl)c(=O)n(N)c2n1)C(C)(O)O.Cl | – | > 300 |
| COCCC(C)Nc1ncc2cc(-c3ccccc3Cl)c(=O)n(C)c2n1.Cl (stereo not shown) | – | 156.4 to 160.2 |
| CN(C)C(=O)CN1CCC(CNc2ncc3cc(-c4ccccc4Cl)c(=O)[nH]c3n2)CC1.Cl [Cpd 4] | 6270 | 211.8 to 212.8 |
| C[C@H](Nc1ncc2cc(-c3ccccc3Cl)c(=O)n(C3CC3)c2n1)C(C)(C)O [Cpd 12] | 124 | – |
| Cn1c(=O)c(-c2ccccc2Cl)cc2cnc(NC(C)(C)CO)nc21 (as salt: HCl) [Cpd 1] | – | 228.6 to 228.9 |
| C[C@H](Nc1ncc2cc(-c3ccccc3Cl)c(=O)n(C)c2n1)C(C)(C)O (as salt: HCl) [Cpd 8] | – | 178 to 181.5 |
